Results on 24 molecules are retold here after patent US12655125B2 (SIRONAX LTD., priority 2020, dated 2026).

Broadly, the EC50 is the concentration that produces a half-maximal response.

Like-named read-outs stand apart in the source and are kept apart here.

The subject of this assay is HT-29 cells. As to the kind of experiment: HT29 Cells 0FBS Assay In Vitro (TNF-α/SMAC mimetic/zVAD-FMK induced necroptosis, CellTiter-Glo cell viability). Format: cell-based. Conditions: Homo sapiens, HT-29 cells, FBS free medium, TNF-α (10 ng/ml), SMAC mimetic (6 uM), zVAD-FMK (10 μM), 20 hours, geometric mean EC50. In short, it runs like this: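 HT-29 cells (5,000/well, seeded overnight) in serum-free McCoy's 5A were stimulated with TNF-α 10 ng/ml, SMAC mimetic 6 μM and zVAD-FMK 10 μM to induce necroptosis. Compound added as 10-point 3-fold series for 20 h at 37° C. CellTiter-Glo luminescence gives viability; EC50 is geometric mean of duplicate dose-responses.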

Setting [1] is: read-out: Cell activity (EC50) of Compounds 117-281.
The mark [2] stands for this setting: read-out: Cell activity (EC50) of Compounds 1-116.

For the molecule `Cc1c(C(N)=O)nn(C)c1-c1cc(OC2CN(C(=O)N3N=CC[C@H]3c3cc(F)cc(F)c3)C2)c(F)cn1` [compound 165, (S)-5-(4-((1-(5-(3,5-difluorophenyl)-4,5-dihydro-1H-pyrazole-1-carbonyl)azetidin-3-yl)oxy)-5-fluoropyridin-2-yl)-1,4-dimethyl-1H-pyrazole-3-carboxamide], the EC50 under setting [1] is 0.1 to 100 nM.

For `Cc1oncc1-c1ncc(F)c(OC2CN(C(=O)N3N=CC[C@H]3c3cc(F)cc(F)c3)C2)n1` [compound 21, (S)-(5-(3,5-difluorophenyl)-4,5-dihydro-1H-pyrazol-1-yl)(3-((5-fluoro-2-(5-methylisoxazol-4-yl)pyrimidin-4-yl)oxy)azetidin-1-yl)methanone], the half-maximal effective concentration (EC50) under setting [2] was 0.1 to 100 nM.

As for `CNC(=O)c1c(C)nn(-c2cc(OC3CN(C(=O)N4N=CC[C@H]4c4cc(F)cc(F)c4)C3)c(F)cn2)c1C` [compound 193, (S)-1-(4-((1-(5-(3,5-difluorophenyl)-4,5-dihydro-1H-pyrazole-1-carbonyl)azetidin-3-yl)oxy)-5-fluoropyridin-2-yl)-N,3,5-trimethyl-1H-pyrazole-4-carboxamide], the EC50 under setting [1] is 0.1 to 100 nM.

For the molecule `Cc1c(NCCO)nn(C)c1-c1cc(OC2CN(C(=O)N3N=CC[C@H]3c3cc(F)cc(F)c3)C2)c(F)cn1` [compound 212, (S)-(5-(3,5-difluorophenyl)-4,5-dihydro-1H-pyrazol-1-yl)(3-((5-fluoro-2-(3-((2-hydroxyethyl)amino)-1,4-dimethyl-1H-pyrazol-5-yl)pyridin-4-yl)oxy)azetidin-1-yl)methanone], the half-maximal effective concentration (EC50) under setting [1] lay in the range of 0.1 to 100 nM.

As to `Cc1nn(CC(=O)N2CCOCC2)c(C)c1-c1cc(OC2CN(C(=O)N3N=CC[C@H]3c3cc(F)cc(F)c3)C2)c(F)cn1` [compound 96, (S)-2-(4-(4-((1-(5-(3,5-difluorophenyl)-4,5-dihydro-1H-pyrazole-1-carbonyl)azetidin-3-yl)oxy)-5-fluoropyridin-2-yl)-3,5-dimethyl-1H-pyrazol-1-yl)-1-morpholinoethan-1-one], the EC50 under setting [2] lay in the range of 0.1 to 100 nM.

As to `Cc1nc(C(N)=O)c(C)n1-c1cc(OC2CN(C(=O)N3N=CC[C@H]3c3cc(F)cc(F)c3)C2)c(F)cn1` [compound 200, (S)-1-(4-((1-(5-(3,5-difluorophenyl)-4,5-dihydro-1H-pyrazole-1-carbonyl)azetidin-3-yl)oxy)-5-fluoropyridin-2-yl)-2,5-dimethyl-1H-imidazole-4-carboxamide], the concentration for a half-maximal effect (EC50) under setting [1] is 0.1 to 100 nM.

On to `Cc1n[nH]c(C)c1-c1ncc(F)c(OC2CN(C(=O)N3N=CC[C@H]3c3cc(F)cc(F)c3)C2)n1` [compound 91, (S)-(5-(3,5-difluorophenyl)-4,5-dihydro-1H-pyrazol-1-yl)(3-((2-(3,5-dimethyl-1H-pyrazol-4-yl)-5-fluoropyrimidin-4-yl)oxy)azetidin-1-yl)methanone], for which, under setting [2], the concentration giving a half-maximal response (EC50) lay within 0.1 to 100 nM.

Consider `Cc1c(NC(=O)C2CC2)nn(C)c1-c1cc(OC2CN(C(=O)N3N=CC[C@H]3c3cc(F)cc(F)c3)C2)c(F)cn1` [compound 144, (S)—N-(5-(4-((1-(5-(3,5-difluorophenyl)-4,5-dihydro-1H-pyrazole-1-carbonyl)azetidin-3-yl)oxy)-5-fluoropyridin-2-yl)-1,4-dimethyl-1H-pyrazol-3-yl)cyclopropanecarboxamide], for which the EC50 under setting [1] fell in the range of 0.1 to 100 nM.

Take `Cc1c(N)nn(C)c1-c1ccc(F)c(OC2CN(C(=O)N3N=CC[C@H]3c3cc(F)cc(F)c3)C2)n1` [compound 215, (S)-(3-((6-(3-amino-1,4-dimethyl-1H-pyrazol-5-yl)-3-fluoropyridin-2-yl)oxy)azetidin-1-yl)(5-(3,5-difluorophenyl)-4,5-dihydro-1H-pyrazol-1-yl)methanone]: under setting [1], the concentration for a half-maximal effect (EC50) fell in the range of 0.1 to 100 nM.

In the case of `Cc1nn(-c2cc(OC3CN(C(=O)N4N=CC[C@H]4c4cc(F)cc(F)c4)C3)c(F)cn2)c(C)c1C(=O)N[C@H]1CCOC1` [compound 257, 1-(4-((1-((S)-5-(3,5-difluorophenyl)-4,5-dihydro-1H-pyrazole-1-carbonyl)azetidin-3-yl)oxy)-5-fluoropyridin-2-yl)-3,5-dimethyl-N—((S)-tetrahydrofuran-3-yl)-1H-pyrazole-4-carboxamide], the EC50 under setting [1] was 0.1 to 100 nM.

On to `Cc1nn(-c2cc(OC3CN(C(=O)N4N=CC[C@H]4c4cc(F)cc(F)c4)C3)c(F)cn2)c(C)c1C(=O)NC1CCOCC1` [compound 216, (S)-1-(4-((1-(5-(3,5-difluorophenyl)-4,5-dihydro-1H-pyrazole-1-carbonyl)azetidin-3-yl)oxy)-5-fluoropyridin-2-yl)-3,5-dimethyl-N-(tetrahydro-2H-pyran-4-yl)-1H-pyrazole-4-carboxamide], for which the concentration for a half-maximal effect (EC50) under setting [1] is 0.1 to 100 nM.

In the case of `Cc1nn(-c2cc(OC3CN(C(=O)N4N=CC[C@H]4c4cc(F)cc(F)c4)C3)c(F)cn2)c(C)c1C(=O)O` [compound 233, (S)-1-(4-((1-(5-(3,5-difluorophenyl)-4,5-dihydro-1H-pyrazole-1-carbonyl)azetidin-3-yl)oxy)-5-fluoropyridin-2-yl)-3,5-dimethyl-1H-pyrazole-4-carboxylic acid], the concentration for a half-maximal effect (EC50) under setting [1] is 0.1 to 100 nM.

On to `Cc1nn(-c2cc(OC3CN(C(=O)N4N=CC[C@H]4c4cc(F)cc(F)c4)C3)c(F)cn2)c(C)c1SCc1ccccc1` [compound 227, (S)-(3-((2-(4-(benzylthio)-3,5-dimethyl-1H-pyrazol-1-yl)-5-fluoropyridin-4-yl)oxy)azetidin-1-yl)(5-(3,5-difluorophenyl)-4,5-dihydro-1H-pyrazol-1-yl)methanone], for which the EC50 under setting [1] lay within 0.1 to 100 nM.

For the molecule `Cc1c(Cl)nn(C)c1-c1cc(OC2CN(C(=O)N3N=CC[C@H]3c3cc(F)cc(F)c3)C2)c(F)cn1` [compound 175, (S)-(3-((2-(3-chloro-1,4-dimethyl-1H-pyrazol-5-yl)-5-fluoropyridin-4-yl)oxy)azetidin-1-yl)(5-(3,5-difluorophenyl)-4,5-dihydro-1H-pyrazol-1-yl)methanone], the EC50 under setting [1] was 0.1 to 100 nM.

In the case of `Cc1cn(C)c(=O)n1-c1cc(OC2CN(C(=O)N3N=CC[C@H]3c3cc(F)cc(F)c3)C2)c(F)cn1` [compound 238, (S)-3-(4-((1-(5-(3,5-difluorophenyl)-4,5-dihydro-1H-pyrazole-1-carbonyl)azetidin-3-yl)oxy)-5-fluoropyridin-2-yl)-1,4-dimethyl-1,3-dihydro-2H-imidazol-2-one], under setting [1], the EC50 lay in the range of 100 to 1000 nM.

As to `Cc1nn(C2CCNCC2)c(C)c1-c1cc(OC2CN(C(=O)N3N=CC[C@H]3c3cc(F)cc(F)c3)C2)c(F)cn1` [compound 181], the concentration giving a half-maximal response (EC50) under setting [1] lay within 0.1 to 100 nM.

Take `Cc1nn(-c2cc(OC3CN(C(=O)N4N=CC[C@H]4c4cc(F)cc(F)c4)C3)c(F)cn2)c(C)c1C(=O)N[C@H]1C[C@H](O)C1` [compound 255, 1-(4-((1-((S)-5-(3,5-difluorophenyl)-4,5-dihydro-1H-pyrazole-1-carbonyl)azetidin-3-yl)oxy)-5-fluoropyridin-2-yl)-N-((1r,3r)-3-hydroxycyclobutyl)-3,5-dimethyl-1H-pyrazole-4-carboxamide]: the EC50 under setting [1] lay within 0.1 to 100 nM.

As for `CNC(=O)c1c(C)c(-c2cc(OC3CN(C(=O)N4N=CC[C@H]4c4cc(F)cc(F)c4)C3)c(F)cn2)nn1C` [compound 246, (S)-3-(4-((1-(5-(3,5-difluorophenyl)-4,5-dihydro-1H-pyrazole-1-carbonyl)azetidin-3-yl)oxy)-5-fluoropyridin-2-yl)-N,1,4-trimethyl-1H-pyrazole-5-carboxamide], the EC50 under setting [1] was in the range of 0.1 to 100 nM.

Regarding `Cn1ncc(N)c1-c1cc(OC2CN(C(=O)N3N=CC[C@H]3c3cc(F)cc(F)c3)C2)c(F)cn1` [compound 53, (S)-(3-((2-(4-amino-1-methyl-1H-pyrazol-5-yl)-5-fluoropyridin-4-yl)oxy)azetidin-1-yl)(5-(3,5-difluorophenyl)-4,5-dihydro-1H-pyrazol-1-yl)methanone], the half-maximal effective concentration (EC50) under setting [2] lay within 0.1 to 100 nM.

In the case of `Cc1cnn(C)c1-c1ccc(F)c(OC2CN(C(=O)N3N=CC[C@H]3c3cc(F)cc(F)c3)C2)c1` [compound 112, (S)-(5-(3,5-difluorophenyl)-4,5-dihydro-1H-pyrazol-1-yl)(3-(5-(1,4-dimethyl-1H-pyrazol-5-yl)-2-fluorophenoxy)azetidin-1-yl)methanone], under setting [2], the 50% effective concentration (EC50) lay in the range of 0.1 to 100 nM.

Turning to `Cc1nn(-c2cc(OC3CN(C(=O)N4N=CC[C@H]4c4cc(F)cc(F)c4)C3)c(F)cn2)c(C)c1C(=O)NC1CC1` [compound 232, (S)—N-cyclopropyl-1-(4-((1-(5-(3,5-difluorophenyl)-4,5-dihydro-1H-pyrazole-1-carbonyl)azetidin-3-yl)oxy)-5-fluoropyridin-2-yl)-3,5-dimethyl-1H-pyrazole-4-carboxamide], the concentration giving a half-maximal response (EC50) under setting [1] fell in the range of 0.1 to 100 nM.

`CCNC(=O)c1cnn(C)c1-c1cc(OC2CN(C(=O)N3N=CC[C@H]3c3cc(F)cc(F)c3)C2)c(F)cn1` [compound 71, (S)-5-(4-((1-(5-(3,5-difluorophenyl)-4,5-dihydro-1H-pyrazole-1-carbonyl)azetidin-3-yl)oxy)-5-fluoropyridin-2-yl)-N-ethyl-1-methyl-1H-pyrazole-4-carboxamide]: the EC50 under setting [2] is 0.1 to 100 nM.

Consider `CNS(=O)(=O)c1c(C)nn(-c2cc(OC3CN(C(=O)N4N=CC[C@H]4c4cc(F)cc(F)c4)C3)c(F)cn2)c1C` [compound 230, (S)-1-(4-((1-(5-(3,5-difluorophenyl)-4,5-dihydro-1H-pyrazole-1-carbonyl)azetidin-3-yl)oxy)-5-fluoropyridin-2-yl)-N,3,5-trimethyl-1H-pyrazole-4-sulfonamide], for which, under setting [1], the EC50 fell in the range of 0.1 to 100 nM.

`Cc1c(-c2cc(OC3CN(C(=O)N4N=CC[C@H]4c4cc(F)cc(F)c4)C3)c(F)cn2)nn(C)c1C(=O)NC1CCOCC1` [compound 247, (S)-3-(4-((1-(5-(3,5-difluorophenyl)-4,5-dihydro-1H-pyrazole-1-carbonyl)azetidin-3-yl)oxy)-5-fluoropyridin-2-yl)-1,4-dimethyl-N-(tetrahydro-2H-pyran-4-yl)-1H-pyrazole-5-carboxamide]: under setting [1], the half-maximal effective concentration (EC50) was in the range of 0.1 to 100 nM.
